Data: PubChem BioAssay AID540252 (Sanford-Burnham Center for Chemical Genomics, 2011)
Activity calls are given as the source filed them. The rule behind the calls is not given here.

biological target: glucose-6-phosphate dehydrogenase-6-phosphogluconolactonase (Plasmodium falciparum 3D7); assay: inhibition of P. falciparum G6PD activity – biochemical, end-point NADPH detection, orthogonal assay, dose response (AID 540252); details: purified PfG6PD enzyme, NADPH direct detection

Compound | IC50
COc1ccc(N2CSC3=C(C#N)C(c4cc(OC)c(OC)cc4OC)CC(=O)N3C2)c(OC)c1 (stereo not drawn) | > 80 µM (inactive)
c1cc2c(cc1NC1CCCCCC1)OCO2 | > 80 µM (inactive)
Nc1ccc(S(=O)(=O)c2cc(O)c3ccccc3c2O)cc1 | > 80 µM (inactive)
O=c1[nH]sc2cc(F)ccc12 | > 80 µM (inactive)
O=C(Nc1ccccn1)c1sc2cc([N+](=O)[O-])ccc2c1Cl | > 80 µM (inactive)
O=S(=O)(Nc1cc(Sc2ncn[nH]2)c(O)c2ccccc12)c1ccccc1 | > 80 µM (inactive)
COc1c2ccoc2c(OCC=C(C)C)c2oc(=O)ccc12 | > 80 µM (inactive)
CC1=C(O)C(=O)C=C2C1=CC=C1C2(C)CCC2(C)C3CC(C)(C(=O)O)CCC3(C)CCC12C (stereo not drawn) | > 80 µM (inactive)
O=C(Nc1nnc(S(=O)(=O)N2CCOCC2)s1)c1ccc(F)cc1 | > 80 µM (inactive)
S=c1ncc2[nH]c(=S)[nH]c2[nH]1 | 60.5 µM
CN(C)c1ccc(/C=C/c2ccc3c4ccccc4ccc3[n+]2-c2ccccc2)cc1 | > 80 µM (inactive)
Cc1nn(-c2ccccc2)c(Cl)c1/C=N/Nc1nc2ccccc2n1C | > 80 µM (inactive)
CCOc1ccc(S(=O)(=O)Nc2cc(SCC(=O)O)c(O)c3ccccc23)cc1 | > 80 µM (inactive)
O=C(CN1CCN(c2ccc(O)cc2)CC1)Nc1cc(S(=O)(=O)N2CCOCC2)ccc1Cl | > 80 µM (inactive)
N#Cc1ccc2sn(-c3ccccc3)c(=O)c2c1 | 15.2 µM
CCC1(C)CC(C(N)=S)CCO1 (stereo not drawn) | > 80 µM (inactive)
COc1ccc(NS(=O)(=O)c2ccc(N3CCCC3)c(NC(=S)Nc3cccc(C)c3C)c2)cc1 | > 80 µM (inactive)
Cc1cc(O)c(C(C)C)cc1N=Cc1ccc(N(C)C)cc1 | > 80 µM (inactive)
Cc1cc(C(=O)O)ccc1-n1c(C)cc(C=C2C(=O)c3ccccc3C2=O)c1C | > 80 µM (inactive)
COc1ccc(CCn2c(NN=C(C)C)nc3c2c(=O)[nH]c(=O)n3C)cc1 | > 80 µM (inactive)
Cc1ccc(NC(=O)c2cc(N3C(=O)C=CC3=O)ccc2N2CCOCC2)cc1 | > 80 µM (inactive)
COc1cc(/C=N/n2cc(-c3ccccc3)[nH]c2=S)cc(OC)c1O | > 80 µM (inactive)

Compound | IC50
CCCCCCCCn1sccc1=O | 46 µM
CCOc1ccccc1CNc1ccc(O)cc1 | > 80 µM (inactive)
Cc1nc2ccccn2c1-c1ccnn1S(=O)(=O)c1ccc(F)cc1 | > 80 µM (inactive)
COc1ccc(Cl)cc1NC(=O)c1cccc([N+](=O)[O-])c1O | > 80 µM (inactive)
Cc1ccc(CNc2ccc(O)cc2)cc1 | > 80 µM (inactive)
C(=N\Nc1nc2ccccc2[nH]1)/c1ccccn1 | > 80 µM (inactive)
O=C1C(c2cc(=O)c3ccccc3[nH]2)=C(O)c2ccccc21 | > 80 µM (inactive)
Cc1cc(C)nc(SSc2nc(C)cc(C)n2)n1 | 57.6 µM
COc1cc(Sc2ccc(C)cc2)c(OC)cc1N | > 80 µM (inactive)
CN(C)c1ccc(C=c2c3ccccc3n3c2c2ccccc2[n+]3C)cc1 | > 80 µM (inactive)
N#Cc1ccc(Oc2cccc3cccnc23)c([N+](=O)[O-])c1 | > 80 µM (inactive)
O=c1c2ccccc2sn1-c1cc(S(=O)(=O)N2CCOCC2)ccc1N1CCCC1 | 15.1 µM
Cc1ccc(-n2sc3cc(F)ccc3c2=O)c(C)c1 | 12.2 µM
Fc1cccc(Cl)c1CNc1ccc(N2CCCC2)cc1 | > 80 µM (inactive)
CC(NC1=CC(=O)c2cccnc2C1=O)C(O)c1ccccc1 (stereo not drawn) | > 80 µM (inactive)
Cc1ccccc1-n1c(-c2ccc3ccccc3n2)n[nH]c1=S | > 80 µM (inactive)
O=C(O)c1ccc(-n2c(-c3cc(-c4ccco4)[nH]n3)n[nH]c2=S)cc1 | > 80 µM (inactive)
O=c1c2ccccc2sn1-c1ccc(Cl)cc1 | 17.2 µM
CC1=CC(=NOC(=O)/C=C/c2ccccc2)C=C(C)C1=O | > 80 µM (inactive)
CN1CC[C@@]2(C)c3cc(O)ccc3N(C)[C@@H]12 | > 80 µM (inactive)
CCOc1ccc2ccccc2c1/C=N/NC(=O)c1ccncc1 | > 80 µM (inactive)
CCn1c(SCc2nc3scc(-c4ccccc4)c3c(=O)[nH]2)nnc1-c1cccs1 | > 80 µM (inactive)

Compound | IC50
CC1(OC(=O)C2CCCC2)C(=O)C=C2C=C(c3ccsc3)N(CC3CC3)C=C2C1=O (stereo not drawn) | > 80 µM (inactive)
C=CCc1c(C)[nH]c(=S)c(C#N)c1C | > 80 µM (inactive)
O=C(CNC(=O)c1ccccc1)NCC(=O)OCC(=O)c1ccc([N+](=O)[O-])cc1 | 59.6 µM
COc1ccc2ccccc2c1C1CC(=O)N2CN(C3CCCCC3)CSC2=C1C#N (stereo not drawn) | > 80 µM (inactive)
CCN(CC)C(=O)c1c(C)[nH]c(=S)c(C#N)c1-c1ccco1 | > 80 µM (inactive)
COc1c(O)ccc2c1CN1CCc3cc4c(cc3C1C2)OCO4 (stereo not drawn) | > 80 µM (inactive)
Oc1ccc(C23CC4CC(CC(C4)C2)C3)cc1O | 52 µM
CCc1nnc(NC(=O)c2ccc(Cl)nc2)s1 | > 80 µM (inactive)
Cc1ccc(S(=O)(=O)SC/C=C/CSS(=O)(=O)c2ccc(C)cc2)cc1 | 64.4 µM
Cc1cc(O)c(C(C)C)cc1N=Cc1ccc([N+](=O)[O-])cc1 | > 80 µM (inactive)
Cn1cc(S(=O)(=O)CC(=O)N2CCc3ccccc32)c2ccccc21 | > 80 µM (inactive)
O=C(O)c1cccc(N2C(=O)C=CC2=O)c1 | 67.4 µM
CC1=C(C)CS(=O)N(S(=O)(=O)c2ccc(Cl)cc2)C1 (stereo not drawn) | > 80 µM (inactive)
CN1CCN(C(=O)c2sc(=S)n(-c3ccccc3)c2N)CC1 | 54.6 µM
CCOc1cc(NCc2ccccc2)c2ncn(C(C)C)c2c1 | > 80 µM (inactive)
COc1ccc(C(=O)Nc2nnc(S(=O)(=O)N3CCOCC3)s2)cc1 | > 80 µM (inactive)
COc1ccc(CCn2c(NN=C3CCCCC3)nc3c2c(=O)[nH]c(=O)n3C)cc1 | > 80 µM (inactive)
O=C1C=CC2=C3c4cc(O)c(O)cc4CC3(O)COC2=C1O (stereo not drawn) | > 80 µM (inactive)
CC(C)Nc1ccc(Nc2ccccc2)cc1 | > 80 µM (inactive)
CC(Cc1ccc(O)c(O)c1)C(C)Cc1ccc(O)c(O)c1 (stereo not drawn) | 68.4 µM
O=C(Nc1ccc([N+](=O)[O-])cc1Cl)c1cc(Cl)ccc1O | > 80 µM (inactive)
CC1CCc2[nH]c3ccc(C(=O)N(C)CC(=O)Nc4ccccc4C(F)(F)F)cc3c2C1 (stereo not drawn) | > 80 µM (inactive)

Compound | IC50
COc1cc(N(C)C)ccc1C=c1c2ccccc2n2c1cc(-c1ccccc1)[n+]2C | > 80 µM (inactive)
O=C(COc1cccc2ccccc12)Nc1ccc(Cl)cc1C(=O)O | > 80 µM (inactive)
O=c1c2cc(F)ccc2sn1-c1ccccc1Cl | 13.8 µM
C[C@H](NC(=O)c1cc2c(cn1)[nH]c1ccccc12)C(=O)O | > 80 µM (inactive)
COc1cc(CNc2ccc(N3CCCC3)cc2)cc(Cl)c1OC | > 80 µM (inactive)
CN(C)Cc1cc(O)c(CN(C)C)cc1O | > 80 µM (inactive)
CCC(C)N(CCNC(=O)c1ccc2c(c1)NC(=O)c1ccccc1S2)C1CCCCC1 (stereo not drawn) | 6.49 µM
CC(=NNC(=S)N1CCN(c2ccccn2)CC1)c1nccs1 | > 80 µM (inactive)
COc1ccc(C(=O)c2c(C(F)(F)F)oc3c2C(=O)c2ccccc2C3=O)cc1 | > 80 µM (inactive)
COc1cccc2nc3cc(C)c(C)cc3nc12 | > 80 µM (inactive)
COC1=C(N)C(=O)c2nc(C)ccc2C1=O | > 80 µM (inactive)
CCCCOc1ccc(Cc2n[nH]c(=S)n2N)cc1 | > 80 µM (inactive)
COc1ccc(OCc2nnc3n2N=C(c2ccccc2)C(CC(=O)O)S3)cc1 (stereo not drawn) | > 80 µM (inactive)
CCOC(=O)Cc1cc(=O)n2[nH]c(C(C)(C)C)cc2n1 | > 80 µM (inactive)
CCOC(=O)c1c(OCC)[nH]c2c1cc(O)c1ccccc12 | > 80 µM (inactive)
O=C(Cn1sc2ccccc2c1=O)Nc1ccc(Br)cc1 | 22.4 µM
COc1cc(-c2nnc3n2N=C(c2ccccc2)CS3)cc(OC)c1OC | > 80 µM (inactive)
O=C(COC(=O)c1cnccn1)c1ccc([N+](=O)[O-])cc1 | 54.9 µM
COc1cc(N)c2ncccc2c1Cl | > 80 µM (inactive)
O=[N+]([O-])c1c(NCCCO)cc(Sc2nc3ccccc3s2)c2nonc12 | > 80 µM (inactive)
Cc1ccc(-c2nc(N)s[n+]2-c2ccccc2)cc1 | 60.3 µM
CC1(C)Nc2ccc(O)cc2-c2c1ssc2=S | > 80 µM (inactive)

Compound | IC50
Cn1c(=O)c2c([nH]c(=S)n2CCCc2ccccc2)n(C)c1=O | > 80 µM (inactive)
Cc1ccc(S(=O)(=O)/N=C2/C=C(C3C(=O)CC(C)(C)CC3=O)C(=O)c3ccccc32)cc1 | > 80 µM (inactive)
COc1ccc(CCn2c(NN)nc3c2c(=O)[nH]c(=O)n3C)cc1 | > 80 µM (inactive)
O=C1NC(=S)NC(=O)C1=Cc1ccc(Br)s1 | > 80 µM (inactive)
O=S(=O)(Nc1cccc2cccnc12)c1ccccc1 | > 80 µM (inactive)
ClC(Cl)(c1nnnn1-c1ccccc1)c1nnnn1-c1ccccc1 | 56.2 µM
OCCN1CCN(C(=S)c2ccc(Cl)c(Cl)c2)CC1 | > 80 µM (inactive)
Cc1ccc(NC(=O)Cn2sc3nc(C)cc(C)c3c2=O)c(Cl)c1 | > 80 µM (inactive)
COc1cc(N)c2ncccc2c1SC | > 80 µM (inactive)
NNC(=O)CN1C(c2ccccc2Br)=Nc2ccc(Br)cc2C1c1ccccc1 (stereo not drawn) | > 80 µM (inactive)
Cc1cc(C)c2sc(NC(=O)C3=COCCO3)nc2c1 | > 80 µM (inactive)
O=[N+]([O-])c1ccc(-[n+]2ccc3ccccc3c2)c([N+](=O)[O-])c1 | > 80 µM (inactive)
CN(C)S(=O)(=O)c1cccc(-n2sc3ccccc3c2=O)c1 | 13.5 µM
N#Cc1ccc(N=c2ssnc2Cl)cc1 | 49 µM
Clc1nssc1=Nc1nncs1 | 35.6 µM
CN1CCc2cccc3c2[C@H]1Cc1ccc(O)c(O)c1-3 | > 80 µM (inactive)
O=C(O)CSc1cc(NS(=O)(=O)c2ccc(Cl)cc2)c2ccccc2c1O | > 80 µM (inactive)
O=C(Cn1sc2ccccc2c1=O)Nc1ccc(Cl)cc1 | 15.2 µM
COc1cc(N=c2ssnc2Cl)cc(OC)c1 | 72.6 µM
Cn1c(=O)[nH]c(=O)c2c1[nH]c(=S)n2CCCc1ccccc1 | 66.1 µM
